From patent US8106047B2, “Triazolophthalazines” (NYCOMED GmbH, priority 2005, dated 2012)
Entries after “also recorded” stand apart in the source; their conditions may differ.

Tested on: HUVEC monolayers
Assay: Inhibition of macromolecule (HRP) permeability of thrombin-stimulated HUVEC monolayers
Format: cell-based, human
Conditions: 10 μM Motapizone (PDE3) and 1 μM RP73401 (PDE4) together, 1 U/ml thrombin
Method: Method to Assess Inhibition of Macromolecule Permeability of HUVEC Monolayers
The procedure to measure macromolecule permeability of endothelial cell monolayers followed the method described by Langeler & van Hinsbergh (1988) with modifications. Human umbilical vein endothelial cells were isolated from umbilical cords according to standard procedures (Jaffe et al. 1973) and cultured in endothelial cell basal medium (EBM) supplemented with 2% FCS, 0.5 ng/ml VEGF, 10 ng/ml bFGF, 5 ng/ml EGF, 20 ng/ml Long R3 IGF-1, 0.2 μg/ml hydrocortisone, 1 μg/ml ascorbic acid, 22.5 μg/ml heparin, 50 μg/ml gentamicin, 50 ng/ml amphotericin B (EGM2 purchased from Promocell GmbH, Heidelberg, Germany). At confluency, cells were trypsinized and replated at 73000 cells per well on 3 μm polycarbonate filter Transwell inserts (Costar GmbH, Bodenheim, Germany) precoated with 10 μg cm^2−1 Fibronectin (Sigma, Taufkirchen, Germany). HUVECs were cultured in EGM2 (100 μl in the upper wells and 600 μl in the lower wells) over four days prior the experiments and medium was changed every other day. At the day of the experiment culture medium was replaced by M199 with 1% human serum albumin. Endothelial cells were preincubated with cyclic nucleotide modifiers (the selective PDE3 inhibitor motapizone, the selective PDE4 inhibitor RP73401, the cGMP generators ANP or SNP and PDE2 inhibitors) for 15 min. HUVECs were then stimulated with Thrombin (1 U ml^−1) (Sigma, Taufkichen, Germany) and horsh radish peroxidase (5 μg/ml) (Sigma, Taufkirchen, Germany) as the macromolecule marker protein was added to the upper wells. Following 1 h incubation time Transwells were removed and the activity of horsh radish peroxidase that penetrated the endothelial cell monolayer was measured in the lower wells with the 3,3′,5,5′-tetramethylbenzidine liquid substrate system from Sigma (Taufkirchen, Germany).
In parallel, compounds according to the invention can inhibit Thrombin-induced permeability of HUVEC monolayers for horsh radish peroxidase (HRP) as a macromolecule marker. […] The concentration-dependent inhibition of HRP permeability at different concentrations was assessed from the percent inhibition in the presence and absence of the PDE2 inhibitors and in the presence of 1 μM RP73401, 10 μM Motapizone and 100 nM ANP.
Inhibition of SNP- or ANP-Induced Permeability of HUVEC Monolayers:
HUVEC cells on 3 μm polycarbonate filters (Transwells) were preincubated with 1 μM RP73401 (to block PDE4) and 10 μM Motapizone (to block PDE3), 1 mM SNP or 100 nM ANP and test sample over 15 min and then stimulated with 1 U/ml thrombin. HRP passage into the lower wells was assessed after 60 min.

Compound | Thrombin-induced increase of HRP permeability (hyperpermeability)
CC1CC(=O)NN=C1c1cc(-n2ccnc2)cs1 (centres unmarked) [Motapizone, reference compound] | completely abolished; also recorded: completely blocked
COc1ccc(C(=O)Nc2c(Cl)cncc2Cl)cc1OC1CCCC1 [RP73401, reference compound] | completely abolished; also recorded: completely blocked

Same assay, conditions: Homo sapiens, 1 h; HUVEC on Transwells, 1 μM RP73401, 10 μM Motapizone, 1 mM SNP or 100 nM ANP, 1 U/ml thrombin, HRP passage after 60 min; read-out: Inhibition of SNP- or ANP-induced permeability, −log IC50 [mol/l] (converted)

Compound | IC50 [nM]
CN(C)S(=O)(=O)c1cccc(Nc2nn3c(-c4ccccc4C(F)(F)F)nnc3c3ccccc23)c1 [Compound 33, [3-(N,N-dimethylsulfamoyl)-phenyl]-[3-(2-trifluoromethyl-phenyl)-[1,2,4]triazolo[3,4-a]phthalazin-6-yl]-amine] | 0.501 to 126
COc1ccc(-c2nnc3c4ccccc4c(Nc4cccc(S(=O)(=O)N5CCOCC5)c4)nn23)cc1 [Compound 25, [3-(4-Methoxyphenyl)-[1,2,4]triazolo[3,4-a]phthalazin-6-yl]-[3-(morpholine-4-sulfonyl)-phenyl]-amine] | 0.501 to 126
COc1ccc(-c2nnc3c4ccccc4c(Nc4cccc(NS(C)(=O)=O)c4)nn23)cc1 [Compound 19, N-{3-[3-(4-Methoxyphenyl)-[1,2,4]triazolo[3,4-a]phthalazin-6-ylamino]-phenyl}-methanesulfonamide] | 0.501 to 126
COc1ccc(-c2nnc3c4ccccc4c(Nc4ccc(NS(C)(=O)=O)cc4)nn23)cc1 [Compound 3, N-{4-[3-(4-Methoxy-phenyl)-[1,2,4]triazolo[3,4-a]phthalazin-6-ylamino]-phenyl}-methanesulfonamide] | 0.501 to 126
COc1ccc(-c2nnc3c4ccccc4c(Nc4cccc(NS(=O)(=O)Cc5ccccc5)c4)nn23)cc1 [Compound 15, N-{3-[3-(4-Methoxy-phenyl)-[1,2,4]triazolo[3,4-a]phthalazin-6-ylamino]-phenyl}-1-phenyl-methanesulfonamide] | 0.501 to 126
COc1ccc(-c2nnc3c4ccccc4c(Nc4ccc(S(=O)(=O)N5CCOCC5)cc4)nn23)cc1 [Compound 22, [3-(4-Methoxyphenyl)-[1,2,4]triazolo[3,4-a]phthalazin-6-yl]-[4-(morpholine-4-sulfonyl)-phenyl]-amine] | 0.501 to 126
CN(C)S(=O)(=O)c1cccc(Nc2nn3c(-c4ccccc4Br)nnc3c3ccccc23)c1 [Compound 27, [3-(N,N-dimethylsulfamoyl)-phenyl]-[3-(2-bromo-phenyl)-[1,2,4]triazolo[3,4-a]phthalazin-6-yl]-amine] | 0.501 to 126
COc1ccc(-c2nnc3c4ccccc4c(Nc4ccc(S(=O)(=O)N(C)C)cc4)nn23)cc1 [Compound 7, [4-(N,N-dimethylsulfamoyl)-phenyl]-[3-(4-methoxy-phenyl)-[1,2,4]triazolo[3,4-a]phthalazin-6-yl]-amine] | 0.501 to 126
COc1ccc(-c2nnc3c4ccccc4c(Nc4cccc(S(=O)(=O)N(C)C)c4)nn23)cc1 [Compound 13, [3-(N,N-dimethylsulfamoyl)-phenyl]-[3-(4-methoxy-phenyl)-[1,2,4]triazolo[3,4-a]phthalazin-6-yl]-amine] | 0.501 to 126

Tested on: not given
Assay: not given
Conditions: not given

Compound | melting point [°C]
COc1ccc(-c2nnc3c4ccccc4c(Nc4cccc(NS(=O)(=O)c5ccc(NC(C)=O)cc5)c4)nn23)cc1 [Compound 18, N-(4-{3-[3-(4-Methoxy-phenyl)-[1,2,4]triazolo[3,4-a]phthalazin-6-ylamino]-phenylsulfamoyl}-phenyl)-acetamide] | 328 to 331
COc1ccc(-c2nnc3c4ccccc4c(Nc4cccc(NS(=O)(=O)c5ccc(C(C)=O)cc5)c4)nn23)cc1 [Compound 12, 4-Acetyl-N-{3-[3-(4-methoxy-phenyl)-[1,2,4]triazolo[3,4-a]phthalazin-6-ylamino]-phenyl}-benzenesulfonamide] | 352 to 354
COc1ccc(-c2nnc3c4ccccc4c(Nc4ccc(NS(=O)(=O)c5cn(C)cn5)cc4)nn23)cc1 [Compound 2, 1-Methyl-1H-imidazole-4-sulfonic acid {4-[3-(4-methoxy-phenyl)-[1,2,4]triazolo[3,4-a]phthalazin-6-ylamino]-phenyl}-amide] | 346 to 348
COc1ccc(-c2nnc3c4ccccc4c(Nc4cccc(S(=O)(=O)N5CCOCC5)c4)nn23)cc1 [Compound 25, [3-(4-Methoxyphenyl)-[1,2,4]triazolo[3,4-a]phthalazin-6-yl]-[3-(morpholine-4-sulfonyl)-phenyl]-amine] | 265.4
COc1ccc(-c2nnc3c4ccccc4c(Nc4cccc(NS(C)(=O)=O)c4)nn23)cc1 [Compound 19, N-{3-[3-(4-Methoxyphenyl)-[1,2,4]triazolo[3,4-a]phthalazin-6-ylamino]-phenyl}-methanesulfonamide] | 304.9
COc1ccc(-c2nnc3c4ccccc4c(Nc4ccc(NS(C)(=O)=O)cc4)nn23)cc1 [Compound 3, N-{4-[3-(4-Methoxy-phenyl)-[1,2,4]triazolo[3,4-a]phthalazin-6-ylamino]-phenyl}-methanesulfonamide] | 318 to 320
COc1ccc(-c2nnc3c4ccccc4c(Nc4cccc(NS(=O)(=O)Cc5ccccc5)c4)nn23)cc1 [Compound 15, N-{3-[3-(4-Methoxy-phenyl)-[1,2,4]triazolo[3,4-a]phthalazin-6-ylamino]-phenyl}-1-phenyl-methanesulfonamide] | 289 to 292
COc1ccc(-c2nnc3c4ccccc4c(Nc4ccc(S(=O)(=O)N5CCOCC5)cc4)nn23)cc1 [Compound 22, [3-(4-Methoxyphenyl)-[1,2,4]triazolo[3,4-a]phthalazin-6-yl]-[4-(morpholine-4-sulfonyl)-phenyl]-amine] | 330
COc1ccc(-c2nnc3c4ccccc4c(Nc4ccc(NS(=O)(=O)c5cccc(OC)c5)cc4)nn23)cc1 [Compound 5, 3-Methoxy-N-{4-[3-(4-methoxy-phenyl)-[1,2,4]triazolo[3,4-a]phthalazin-6-ylamino]-phenyl}-benzenesulfonamide] | 290
COc1ccc(-c2nnc3c4ccccc4c(Nc4cccc(NS(=O)(=O)c5cn(C)cn5)c4)nn23)cc1 [Compound 11, 1-Methyl-1H-imidazole-4-sulfonic acid {3-[3-(4-methoxy-phenyl)-[1,2,4]triazolo[3,4-a]phthalazin-6-ylamino]-phenyl}-amide] | 184 to 187
COc1ccc(-c2nnc3c4ccccc4c(Nc4cccc(S(=O)(=O)N(C)C)c4)nn23)cc1 [Compound 24, 3-[3-(4-Methoxy-phenyl)-[1,2,4]triazolo[3,4-a]phthalazin-6-ylamino]-N,N-dimethyl-benzenesulfonamide] | 220 to 227
COc1ccc(-c2nnc3c4ccccc4c(Nc4cccc(S(N)(=O)=O)c4)nn23)cc1 [Compound 23, 3-[3-(4-Methoxy-phenyl)-[1,2,4]triazolo[3,4-a]phthalazin-6-ylamino]-benzenesulfonamide] | 342 to 349
COc1ccc(-c2nnc3c4ccccc4c(Nc4cccc(NS(=O)(=O)c5ccc(N6CCOCC6)nc5)c4)nn23)cc1 [Compound 16, 6-Morpholin-4-yl-pyridine-3-sulfonic acid {3-[3-(4-methoxy-phenyl)-[1,2,4]triazolo[3,4-a]phthalazin-6-ylamino]-phenyl}-amide] | 323 to 329
COc1ccc(Cc2nnc3c4ccccc4c(Nc4ccc(S(=O)(=O)N5CCCCC5)cc4)nn23)cc1 [Compound 35, [3-(4-Methoxy-benzyl)-[1,2,4]triazolo[3,4-a]phthalazin-6-yl]-[4-(piperidine-1-sulfonyl)-phenyl]-amine] | 283 to 285

More lines, now with the values ahead:

melting point [°C] | Compound
292 to 293 | COc1ccc(Cc2nnc3c4ccccc4c(Nc4cccc(-c5nn[nH]n5)c4)nn23)cc1 [Compound T8, [3-(4-Methoxy-benzyl)-[1,2,4]triazolo[3,4-a]phthalazin-6-yl]-[3-(2H-tetrazol-5-yl)-phenyl]-amine]
256 to 259 | COc1ccc(-c2nnc3c4ccccc4c(Nc4cccc(-c5nnn(C)n5)c4)nn23)cc1 [Compound T5, [3-(4-Methoxy-phenyl)-[1,2,4]triazolo[3,4-a]phthalazin-6-yl]-[3-(2-methyl-2H-tetrazol-5-yl)-phenyl]-amine]
281 to 284 | COc1ccc(-c2nnc3c4ccccc4c(Nc4ccc(-c5nn[nH]n5)cc4)nn23)cc1 [Compound T4, [3-(4-Methoxy-phenyl)-[1,2,4]triazolo[3,4-a]phthalazin-6-yl]-[4-(2H-tetrazol-5-yl)-phenyl]-amine]
262 to 264 | COc1ccc(Cc2nnc3c4ccccc4c(Nc4cccc(-c5nnn(C)n5)c4)nn23)cc1 [Compound T9, [3-(4-Methoxy-benzyl)-[1,2,4]triazolo[3,4-a]phthalazin-6-yl]-[3-(2-methyl-2H-tetrazol-5-yl)-phenyl]-amine]
305 to 308 | COc1ccc(-c2nnc3c4ccccc4c(Nc4cccc(-c5nn[nH]n5)c4)nn23)cc1 [Compound T3, [3-(4-Methoxy-phenyl)-[1,2,4]triazolo[3,4-a]phthalazin-6-yl]-[3-(2H-tetrazol-5-yl)-phenyl]-amine]
314 | COc1ccc(-c2nnc3c4ccccc4c(Nc4ccc(C#N)cc4)nn23)cc1 [Compound T2, 4-[3-(4-Methoxyphenyl)-[1,2,4]triazolo[3,4-a]phthalazin-6-ylamino]-benzonitrile]
289 to 293 | COc1ccc(-c2nnc3c4ccccc4c(Nc4ccc(-c5nnn(C)n5)cc4)nn23)cc1 [Compound T6, [3-(4-Methoxy-phenyl)-[1,2,4]triazolo[3,4-a]phthalazin-6-yl]-[4-(2-methyl-2H-tetrazol-5-yl)-phenyl]-amine]
